Results taken from US11865110B2, “Thrombin inhibitors, formulations, and uses thereof” (VERSEON INTERNATIONAL CORPORATION, priority 2018, dated 2024).

How the values were obtained:
thrombin = target: T1, thrombin (Homo sapiens, UniProt P00734); assay: Human Thrombin Generation Assay (TGA); type: biochemical; conditions: concentration that reduces endogenous thrombin potential AUC by 50%; human plasma; read-out: ETP EC50
T1 construct: from tissue; host or cells: human plasma (thrombin generated in situ by tissue factor, phospholipids and CaCl2)
Description: Results for the human thrombin generation assay (TGA; not to be confused with “thermogravimetric analysis” which is used elsewhere and carries the same acronym. One of skill in the art will appreciate which meaning is intended based on context of the surrounding technical information.) were generated as follows. In a 96-well plate, 4 μL of 100, 33.3, 11.1, 3.7, 1.23, 0.41, 0.137, and 0.046 μM solutions of the test compounds in DMSO were added to sequential wells filled with 68 μL of a “TGA Working Solution.” See description of this solution as well as other relevant solutions below. The plate was incubated at room temperature for 10 minutes, whereupon 8 μL of warm “Substrate Solution” was added to each well, resulting in a 500 μM concentration of the substrate, Z-GGR-AMC (Z-Gly-Gly-Arg-7-amino-4-methylcoumarin·HCl), in each well. Fluorescence intensity data (Ex/Em 380/460 nm) collection began immediately using a Cytation™ or Synergy™ H1 96-well plate reader set to incubate the plate at 37° C. over the data collection time of 90 minutes following double-orbital shaking for a period of 4 seconds. Test compounds were measured parallel to blanks and controls, as well as to wells of the substrate in DMSO at various concentrations (2.50, 0.833, 0.278, 0.093 mM) in the buffers to generate a standard fluorescence curve. Data values were computed automatically, including the ETP EC50 value of the AUC, which is the concentration of the compound that reduces endogenous thrombin potential AUC by 50%.
The various solutions were prepared as follows. A HEPES/NaCl Assay buffer was made by combining 7.5 mL of 5M NaCl, 1.19 g 4-(2-hydroxyethyl)piperazine-1-ethanesulfonic acid (HEPES) and 230 mL of water. An “Innovin Master Solution” was made by combining 20 μL of Siemens Dade Innovin recombinant tissue factor and thromboplastin with 50 μL of 0.5 mM phospholipid-TGT acquired from DiaPharma® in 450 μL of the above HEPES/NaCl Assay buffer. This solution was then vortexed for a few seconds. Next the “Substrate Master Solution” was made by adding 3.2 mL DMSO to 100 mg of Z-GGR-AMC (Z-Gly-Gly-Arg-7-amino-4-methylcoumarin·HCl) and vortexing in a polystyrene tube. This solution was stored at −20° C. A “TGA Working Solution” was prepared by adding 6.2 mL of human plasma, 50 μL of the Innovin Master Solution, and 80 μL of phospholipids to 2.6 mL of HEPES/NaCl Assay buffer. A “Substrate Working Solution” was made immediately before addition to the assay plate by adding 200 μL of the above “Substrate Master Solution” to a pre-warmed (37° C.) mixture of 1.46 mL of HEPES/NaCl Assay buffer and 340 μL of 1M CaCl2).
For additional description of this assay, please see Robert, S. et al. ‘Is thrombin generation the new rapid, reliable and relevant pharmacological tool for the development of anticoagulant drugs?’2009, Pharmacol Res 59:160-6 as well as Hemker, H. C. et al. ‘Calibrated automated thrombin generation measurement in clotting plasma.’ 2003, Pathophysiol Haemost Thromb 33:4-15.

[1] = Mouse liver microsome stability; type: in vitro ADME, mouse (CD-1); conditions: pH 7.4; CD-1 mouse liver microsomes 0.5 mg/mL, NADPH, 37° C.; lower measurable bound 5
Description: In a 96-well Nunc™ plate, 1.5 μL of a 200 μM solution of the test compound in DMSO were placed in a well. This plate, the “Reaction Plate,” was then warmed to 37° C. in an oven. In a second 96-well Nunc™ plate, the “Quench Plate,” six wells were filled with 180 μL of an internal standard quench solution composed of 100 nM diclofenac in acetonitrile. These six wells correspond to the six time points for data collection: 0, 0.5, 5, 15, 30, and 60 minutes. “Assay Buffer” was prepared by combining 6.96 g potassium phosphate, dibasic, 1.36 g potassium phosphate, monobasic, and 0.30 g of magnesium chloride hexahydrate, then diluting to a final concentration of 500 mL in water and adjusting to pH 7.4, as needed. Assay Buffer was warmed to 37° C., and 12 mL were added to a 10-mg vial of NADPH. Then 300 μL of a 20 mg/mL liver microsome suspension were added to yield a 0.5 mg/mL liver microsome suspension. 300 μL of this liver microsome suspension was then added to the test compound solution in the Reaction Plate and mixed thoroughly with a pipette tip. At each time point, 30 μL of this mixture was transferred to the corresponding well of the Quench Plate. In between time points, the Reaction Plate was kept sealed and warmed in an incubator at 37° C. When the last time point had been completed, the quench plate was centrifuged at 4° C. at 1000×g for 10 minutes. Afterwards, 50 μL of the supernatant of each well was transferred to unique, corresponding wells of a 96-well Costar® plate, the “Analysis Plate,” filled with 150 μL of 50:50 acetonitrile:HyClone™ water. The Analysis Plate was then sealed with a pre-slit plate seal before analysis via an appropriate LCMS method with a 10 μL injection. The abstracted AUC data were then automatically plotted to calculate intrinsic clearance in μL/min/mg. This experiment was run alongside a positive and negative control. Due to the parameters of this procedure, one of skill in the art will appreciate that this assay has a lower measurable bound of 5 μL/min/mg; therefore, certain compounds have their clearances labeled as ≤5 μL/min/mg.

Row | SMILES | EC50 (thrombin) [nM] | microsomal CLint at 1 µM [1] [µL/min/mg]
1 | CC(C)(C)C(=O)n1nc(-c2cccn(CCC(=O)O)c2=O)cc1NCc1ccc(Cl)s1 [Compound 1, 3-[3-(5-{[(5-chlorothiophen-2-yl)methyl]amino}-1-(2,2-dimethylpropanoyl)-1H-pyrazol-3-yl)-2-oxo-1,2-dihydropyridin-1-yl]propanoic acid] | 930 to 1700 | 5 to 11
2 | O=C(O)CCn1cccc(-c2cc(NCc3ccc(Cl)s3)[nH]n2)c1=O [Compound 2, 3-[3-(5-{[(5-chlorothiophen-2-yl)methyl]amino}-1H-pyrazol-3-yl)-2-oxo-1,2-dihydropyridin-1-yl]propanoic acid] | > 100000 | ≤ 5
3 | O=C(O)CCn1cccc(-c2cc(NCc3ccc(Cl)s3)n(C(=O)c3ccoc3)n2)c1=O [Compound 12, 3-[3-(5-{[(5-chlorothiophen-2-yl)methyl]amino}-1-(furan-3-carbonyl)-1H-pyrazol-3-yl)-2-oxo-1,2-dihydropyridin-1-yl]propanoic acid] | 1400 to 2100 | ≤ 5
4 | CC(C)(C)C(=O)n1nc(-c2cccn(CC(=O)O)c2=O)cc1NCc1ccc(Cl)s1 [Compound 4, 2-[3-(5-{[(5-chlorothiophen-2-yl)methyl]amino}-1-(2,2-dimethylpropanoyl)-1H-pyrazol-3-yl)-2-oxo-1,2-dihydropyridin-1-yl]acetic acid] | 2800 to 6200 | ≤ 5
5 | O=C(O)Cn1cccc(-c2cc(NCc3ccc(Cl)s3)[nH]n2)c1=O [Compound 3, 2-[3-(5-{[(5-chlorothiophen-2-yl)methyl]amino}-1H-pyrazol-3-yl)-2-oxo-1,2-dihydropyridin-1-yl]acetic acid] | > 100000 | ≤ 5

More lines, in order of falling EC50 (thrombin), values ahead:

Row | EC50 (thrombin) [nM] | microsomal CLint at 1 µM [1] [µL/min/mg] | SMILES
6 | 1400 | 29 | CC(C)(C)C(=O)n1nc(-c2cccn(CCCC(=O)O)c2=O)cc1NCc1ccc(Cl)s1 [Compound 5, 4-[3-(5-{[(5-chlorothiophen-2-yl)methyl]amino}-1-(2,2-dimethylpropanoyl)-1H-pyrazol-3-yl)-2-oxo-1,2-dihydropyridin-1-yl]butanoic acid]
7 | 990 | 100 | CC(C)(C)C(=O)n1nc(-c2cccn(CCC(N)=O)c2=O)cc1NCc1ccc(Cl)s1 [Compound 8, 3-[3-(5-{[(5-chlorothiophen-2-yl)methyl]amino}-1-(2,2-dimethylpropanoyl)-1H-pyrazol-3-yl)-2-oxo-1,2-dihydropyridin-1-yl]propanamide]
8 | 960 | 31 | CCC(C)(C)C(=O)n1nc(-c2cccn(CCC(=O)O)c2=O)cc1NCc1ccc(Cl)s1 [Compound 11, 3-[3-(5-{[(5-chlorothiophen-2-yl)methyl]amino}-1-(2,2-dimethylbutanoyl)-1H-pyrazol-3-yl)-2-oxo-1,2-dihydropyridin-1-yl]propanoic acid]
9 | 430 | 11 | CC(C)(N)Cn1cccc(-c2cc(NCc3ccc(Cl)s3)n(C(=O)c3ccoc3)n2)c1=O [Compound 9, 1-(2-amino-2-methylpropyl)-3-(5-{[(5-chlorothiophen-2-yl)methyl]amino}-1-(furan-3-carbonyl)-1H-pyrazol-3-yl)-1,2-dihydropyridin-2-one]
